Laboratory results from PMC3261753 (Biochemistry, 2011).

Legend:
[1] = tested on: wild-type B. anthracis topoisomerase IV; type: biochemical, Bacillus anthracis
[2] = tested on: S. pneumoniae topoisomerase IV resistance mutations; conditions: cited from earlier work
[3] = tested on: S. pneumoniae gyrase resistance mutations; conditions: cited from earlier work

SMILES	CC3 (concentration of drug required to triple the percent DNA cleavage observed in the absence of drug) [1]	Max. DNA cleavage [1]	Relative potency/efficacy of DNA cleavage enhancement among quinolones [1]	also measured
Cc1c(N2CC[C@@H](CN)C2)c(F)cc2c(=O)n(N)c(=O)n(C3CC3)c12 [8-methyl-quinazoline-2,4-dione, 3-Amino-7-[(3S)-3-(aminomethyl)-1-pyrrolidinyl]-1-cyclopropyl-6-fluoro-8-methyl-2,4(1H,3H) -quinazolinedione]	0.20 µM	29.0%	–	Mg2+ concentration for half-maximal DNA cleavage [1]: ~ 0.35 mM; Mg2+ concentration for maximal DNA cleavage [1]: ~ 1 mM; Potency relative to ciprofloxacin (as reflected by the CC3 value) [1]: ~ 2.5 times
C[C@H]1COc2c(N3CCN(C)CC3)c(F)cc3c(=O)c(C(=O)O)cn1c23 [Levofloxacin, levofloxacin]	1.45 µM	30.4%	most efficacious	Drug concentration that generated maximal DNA cleavage [1]: 20 µM
C[C@@H]1CN(c2c(F)c(N)c3c(=O)c(C(=O)O)cn(C4CC4)c3c2F)C[C@H](C)N1 [sparfloxacin]	–	–	least potent and efficacious quinolone examined	–
O=C(O)c1cn(C2CC2)c2cc(N3CCNCC3)c(F)cc2c1=O [Ciprofloxacin]	–	–	–	Drop in potency with mutant enzyme [2]: > 16 fold; Drop in potency with mutant enzyme [3]: ~ 8 fold
